Biological target: human dUTPase (Homo sapiens (Human), UniProt P33316)
Assay: Human dUTPase inhibitory effect: production of [5-3H]dUMP from [5-3H]dUTP, measured by HPLC with flow scintillation
Type: biochemical
Settings: [5-3H]dUMP production from [5-3H]dUTP, 37° C., 15 minutes
Method in brief: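 E. coli-expressed purified human dUTPase reacted with 1 μM dUTP stock containing [5-3H]dUTP in Tris pH 7.4, MgCl2, 2-mercaptoethanol and albumin, 15 min at 37° C; stopped by 1 min at 100° C. [5-3H]dUMP formed was separated by reversed-phase ion-pair HPLC and quantified by flow scintillation versus water control.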

Chain of human dUTPase (P33316 94-252): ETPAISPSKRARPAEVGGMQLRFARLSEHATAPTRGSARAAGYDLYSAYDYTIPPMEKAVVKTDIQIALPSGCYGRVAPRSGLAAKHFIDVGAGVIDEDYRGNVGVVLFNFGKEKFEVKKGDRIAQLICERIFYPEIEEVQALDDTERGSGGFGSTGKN

Row | SMILES | IC50
1 | CC(C)(CCCOCn1ccc(=O)[nH]c1=O)NS(=O)(=O)c1cccc(OC(F)F)c1 [Example 145, 3-(difluoromethoxy)-N-(5-((2,4-dioxo-3,4-dihydropyrimidin-1(2H)-yl)methoxy)-2-methylpentan-2-yl)benzenesulfonamide] | 6.29 µM
2 | CC(C)(CCCOCn1ccc(=O)[nH]c1=O)NS(=O)(=O)c1cccc(OC(=O)c2ccccc2)c1 [Example 146, 3-(N-(5-((2,4-dioxo-3,4-dihydropyrimidin-1(2H)-yl)methoxy)-2-methylpentan-2-yl)sulfamoyl)phenylbenzoate] | 8.68 µM
3 | CN(C)c1cccc2c(S(=O)(=O)NC(C)(C)CCCOCn3ccc(=O)[nH]c3=O)cccc12 [Example 147, 5-(dimethylamino)-N-(5-((2,4-dioxo-3,4-dihydropyrimidin-1(2H)-yl)methoxy)-2-methylpentan-2-yl)naphthalene-1-sulfonamide] | 9.5 µM
4 | CC(C)(CCCOCn1ccc(=O)[nH]c1=O)NS(=O)(=O)c1cccc(Cl)c1 [Example 148, 3-chloro-N-(5-((2,4-dioxo-3,4-dihydropyrimidin-1(2H)-yl)methoxy)-2-methylpentan-2-yl)benzenesulfonamide] | 2.77 µM
5 | CC(C)(CCCOCn1ccc(=O)[nH]c1=O)NS(=O)(=O)c1cc(Br)c(Br)s1 [Example 149, 4,5-dibromo-N-(5-((2,4-dioxo-3,4-dihydropyrimidin-1(2H)-yl)methoxy)-2-methylpentan-2-yl)thiophene-2-sulfonamide] | 7.65 µM
6 | CC(C)(CCCOCn1ccc(=O)[nH]c1=O)NS(=O)(=O)c1cccc(F)c1 [Example 150, N-(5-((2,4-dioxo-3,4-dihydropyrimidin-1(2H)-yl)methoxy)-2-methylpentan-2-yl)-3-fluorobenzenesulfonamide] | 5.67 µM
7 | Cc1ccccc1S(=O)(=O)NC(C)(C)CCCOCn1ccc(=O)[nH]c1=O [Example 151, N-(5-((2,4-dioxo-3,4-dihydropyrimidin-1(2H)-yl)methoxy)-2-methylpentan-2-yl)-2-methylbenzenesulfonamide] | 5.7 µM
8 | Cc1cccc(S(=O)(=O)NC(C)(C)CCCOCn2ccc(=O)[nH]c2=O)c1 [Example 154, N-(5-((2,4-dioxo-3,4-dihydropyrimidin-1(2H)-yl)methoxy)-2-methylpentan-2-yl)-3-methylbenzenesulfonamide] | 8.82 µM
9 | CC(C)(CCCOCn1ccc(=O)[nH]c1=O)NS(=O)(=O)c1ccccc1Br [Example 156, 2-bromo-N-(5-((2,4-dioxo-3,4-dihydropyrimidin-1(2H)-yl)methoxy)-2-methylpentan-2-yl)benzenesulfonamide] | 8.94 µM
10 | CC(C)(CCCOCn1ccc(=O)[nH]c1=O)NS(=O)(=O)c1ccccc1 [Example 158, N-(5-((2,4-dioxo-3,4-dihydropyrimidin-1(2H)-yl)methoxy)-2-methylpentan-2-yl)benzenesulfonamide] | 9.48 µM
11 | CC(C)(CCCOCn1ccc(=O)[nH]c1=O)NS(=O)(=O)c1cccc(OCC2CC2)c1 [Example 159, 3-(cyclopropylmethoxy)-N-(5-((2,4-dioxo-3,4-dihydropyrimidin-1(2H)-yl)methoxy)-2-methylpentan-2-yl)benzenesulfonamide] | 0.26 µM
12 | CC(C)(CCCOCn1ccc(=O)[nH]c1=O)NS(=O)(=O)c1cccc(OCC(F)F)c1 [Example 160, 3-(2,2-difluoroethoxy)-N-(5-((2,4-dioxo-3,4-dihydropyrimidin-1(2H)-yl)methoxy)-2-methylpentan-2-yl)benzenesulfonamide] | 0.14 µM
13 | CC(C)(CCCOCn1ccc(=O)[nH]c1=O)NS(=O)(=O)c1cccc(OC2CCCC2)c1 [Example 161, 3-(cyclopentyloxy)-N-(5-((2,4-dioxo-3,4-dihydropyrimidin-1(2H)-yl)methoxy)-2-methylpentan-2-yl)benzenesulfonamide] | 0.24 µM
14 | C/C=C\c1cccc(S(=O)(=O)NC(C)(C)CCCOCn2ccc(=O)[nH]c2=O)c1 [Example 162, (Z)—N-(5-((2,4-dioxo-3,4-dihydropyrimidin-1(2H)-yl)methoxy)-2-methylpentan-2-yl)-3-(prop-1-enyl)benzenesulfonamide] | 3.96 µM
